Data as given in patent publication US9458118B2, “Sodium channel modulators for the treatment of pain and diabetes” (CHROMOCELL CORPORATION, priority 2013, dated 2016).
pIC50: −log10 of the molar value.

Legend:
rats = experiment: Acetic acid writhing model in rats; type: in vivo, rat; settings: doses of 10 to 30 mg/kg, intraperitoneal route
Experimental: The Acetic Acid Writhing Model is associated with visceral pain (abdominal pain, such as stomach pain, and pain caused by, for example, bile duct congestion and kidney stones). A writhing test assesses acute peritoneovisceral pain.
After acclimation of 2-3 days, a test compound, positive control or vehicle control was administered by intraperitoneal injection (i.p.) or by oral gavage 15-30 minutes prior to administration of acetic acid. The time of administration of test compound was recorded. For mice: Method A: 0.6% Acetic acid solution in saline was injected i.p. in a volume of 10 ml/kg; Method B: 1.2% Acetic acid solution in saline was injected i.p. in a volume of 5 ml/kg. For rats: 4% acetic acid in saline was injected i.p in a volume of 2 ml/kg at T=0 minutes. Each animal was placed in a clear plastic cage. At T=5 minutes, the number of writhing movements was counted over a 45 minute period. Alternatively, the writhing movements were counted over a 5-minute period and repeated every 5 minutes, starting at T=5 minutes over a 45-minute period.
For each compound tested, the individual score was obtained by calculating the accumulated writhing movements for the time period studied. […]

diabetic rats = experiment: Anti-diabetic and analgesic effect after chronic dosing in the rat STZ model of diabetes; type: in vivo
Experimental: 250-350 g male Sprague-Dawley rats from appropriate animal resources were used. Type I diabetes was induced by a single injection, (intraperitoneally, intravenously or intramuscularly) of 50-100 mg/kg of streptozotocin (STZ, Sigma Chemicals, St. Louis, Mo. or VWR) freshly dissolved in sodium citrate (0.01 M, pH 4.5). Sham animals were given either saline or same vehicle injection. Following a wait time of about two days, inducement of diabetes was confirmed in STZ-injected rats by measuring the plasma glucose concentrations in blood samples from the tail vein after a fast of 6 hours. The glucose level was assayed using a mini glucose monitor (kit for AlphaTRAK 2 meter, available from Abbott Laboratories). Screening for hyperglycemia in STZ-injected animals was done, with only animals with a final blood glucose level ≧300 mg/dl being selected for the study. Glucose levels in the sham animals remained normal. Other parameters (water intake, food intake, and bodyweight) were monitored before the treatment with a test compound and after the cessation of the treatment.
A Compound provided herein is tested in the rat STZ model of diabetes by chronic administration of the Compound for at least 7 days to evaluate analgesic and antidiabetic effects of the Compound. The analgesic effect of the Compound can be evaluated using behavioral tests (e.g., von Frey test, plantar test, and paw pressure test described herein below). The anti-diabetic effect of the Compound can be evaluated based on the improvement in the glucose level, food intake, water intake in the compound treated group compared to the untreated vehicle group and the normal, non-diabetic sham control group.
Diabetes mellitus was induced in rats as described in the section entitled “The Streptozotocin (STZ)-Induced Model of Diabetic Neuropathy” above.
The baseline glucose levels, daily food and water intake and behavioral tests (von Frey, paw pressure and plantar tests) were measured for each animal once weekly for 28 weeks, and once every 2-4 weeks for an additional 28-30 weeks. At a selected week (started from week 6) for a compound test, diabetic rats were divided into two test groups: a vehicle control group and a test compound treated group (n=10 each group). A sham group (saline only without STZ i.p. injection, n=10) was added as a normal, non-diabetic control group. To minimize animal stress associated with repeated daily handling, the compound treated diabetic group of animals received the test compound at a daily dose of 60 mg/kg in their drinking water containing 2% PEG600 and 1% glycofurol (the test compound concentration in the drinking water was based on the individual animal's average daily water consumption as determined the pre-dosing period, which averaged 0.1-0.11 mg/ml). The vehicle control group received drinking water containing 2% PEG600 and 1% glycofurol without the test compound. The treatment continued for 9 days. On day 10 drinking water with test compound or vehicle (2% PEG600 and 1% glycofurol) was replaced with plain drinking water in all groups. The monitoring of glucose levels, food and water intake as well as behavior tests continued for additional 28-30 weeks. […] A gradual, significant reversal of up to 90% of mechanical allodynia (von Frey test) was achieved after 9 days of treatment.
FIGS. 1-3 show food intake, glucose level, and water intake, respectively, for the vehicle control group, the test compound treated group (compound 49, 60 mg/kg/day), and the sham group. […] The significant reduction of food intake, glucose level, and water intake of the compound treated group compared to the vehicle control group continues through week 52. […] Since the standard deviation in the sham groups are less than 5%, no error bars are shown.

Sprague-Dawley rats = experiment: Partial sciatic nerve ligation (PSNL) model, behavioral tests; type: in vivo, rat; settings: oral route, measured 30 minutes post dose
From the text: 250-350 g male Sprague-Dawley rats from appropriate animal resources were anesthetized with 2.5% isoflurane. A hind leg was shaved, and the skin was sterilized with 0.5% iodine and 75% alcohol. All surgical instruments were sterilized before surgery and between animals. An incision (1 cm) was made at the middle of the thigh in parallel with the muscle and sciatic nerve distribution. The muscle was exposed and dissected at the joint of two muscles (biceps femoris) indicated by the light colored (white) fascia line. […]
The analgesic effect of the test compound was expressed as a percent recovery (% Recovery) relative to the sham control group baseline and calculated according to the formula: % Recovery=100%−{[(sham mean-test compound mean)/(sham mean-vehicle mean)]×100%} wherein “sham mean” refers to average score in the sham-operated group; “test compound mean” refers to average score in the PSNL-group (animals with partial sciatic nerve ligation) or diabetic group (animals treated with STZ) treated with a test compound; “vehicle mean” refers to average score in the PSNL-group or diabetic group treated with vehicle only. […]
Animals were placed under clear plastic boxes above a wire mesh floor, which allowed full access to the paws. […] Mechanical paw withdrawal thresholds (PWTs) were measured with the up-down testing paradigm. […]

NaV1.7 = target: T1, NaV1.7 (Homo sapiens, UniProt Q15858); experiment: FDSS membrane potential in-vitro assay; type: cell-based; settings: stimulation with veratridine and scorpion venom
T1 construct: expressed in transfected cells
Experimental: In vitro assays were performed in recombinant cell line that stably express a heterotrimeric protein of interest from an introduced nucleic acid encoding the alpha subunit (hNav1.7, SCN9A), the beta subunit (SCNB1) and the beta subunit (SCNB2). The cell line was engineered using Human Embryonic Kidney 293 cells as host background. Additional cell lines stably expressing recombinant Nav1.7 or Nav1.5 alpha subunit alone or in combination with various beta subunits can also be used in in-vitro assays. […]
Blue membrane potential dye (Molecular Devices Inc.), or membrane potential-sensitive dye, HLB021-152 (AnaSpec) were combined with a fluorescence quencher, e.g., Dipicrylamine (DPA), Acid Violet 17 (AV 17), Diazine Black (DB), HLB30818, FD and C Black Shade, Trypan Blue, Bromophenol Blue, HLB30701, HLB30702, HLB30703, Nitrazine Yellow, Nitro Red, DABCYL (Molecular Probes), FD and C Red NO. […]
The cells were incubated with the membrane potential dye for 45-60 mins at 37° C. The dye-loaded assay plates were then placed in the high-throughput fluorescent plate reader (Hamamatsu FDSS). The kinetic read was started with assay plate imaging every second. […]
Control response elicited by veratridine and scorpion venom with buffer only (without test compounds added) was taken as the maximal response. […] The data were analyzed using GraphPad Prism software to determine the […] value for the test compound. […]

[1] = diabetic rats, 60 mg/kg/day in drinking water, 9 days
[2] = measured on day 11, two days after compound withdrawal

T1 sequence (Q15858 whole entry): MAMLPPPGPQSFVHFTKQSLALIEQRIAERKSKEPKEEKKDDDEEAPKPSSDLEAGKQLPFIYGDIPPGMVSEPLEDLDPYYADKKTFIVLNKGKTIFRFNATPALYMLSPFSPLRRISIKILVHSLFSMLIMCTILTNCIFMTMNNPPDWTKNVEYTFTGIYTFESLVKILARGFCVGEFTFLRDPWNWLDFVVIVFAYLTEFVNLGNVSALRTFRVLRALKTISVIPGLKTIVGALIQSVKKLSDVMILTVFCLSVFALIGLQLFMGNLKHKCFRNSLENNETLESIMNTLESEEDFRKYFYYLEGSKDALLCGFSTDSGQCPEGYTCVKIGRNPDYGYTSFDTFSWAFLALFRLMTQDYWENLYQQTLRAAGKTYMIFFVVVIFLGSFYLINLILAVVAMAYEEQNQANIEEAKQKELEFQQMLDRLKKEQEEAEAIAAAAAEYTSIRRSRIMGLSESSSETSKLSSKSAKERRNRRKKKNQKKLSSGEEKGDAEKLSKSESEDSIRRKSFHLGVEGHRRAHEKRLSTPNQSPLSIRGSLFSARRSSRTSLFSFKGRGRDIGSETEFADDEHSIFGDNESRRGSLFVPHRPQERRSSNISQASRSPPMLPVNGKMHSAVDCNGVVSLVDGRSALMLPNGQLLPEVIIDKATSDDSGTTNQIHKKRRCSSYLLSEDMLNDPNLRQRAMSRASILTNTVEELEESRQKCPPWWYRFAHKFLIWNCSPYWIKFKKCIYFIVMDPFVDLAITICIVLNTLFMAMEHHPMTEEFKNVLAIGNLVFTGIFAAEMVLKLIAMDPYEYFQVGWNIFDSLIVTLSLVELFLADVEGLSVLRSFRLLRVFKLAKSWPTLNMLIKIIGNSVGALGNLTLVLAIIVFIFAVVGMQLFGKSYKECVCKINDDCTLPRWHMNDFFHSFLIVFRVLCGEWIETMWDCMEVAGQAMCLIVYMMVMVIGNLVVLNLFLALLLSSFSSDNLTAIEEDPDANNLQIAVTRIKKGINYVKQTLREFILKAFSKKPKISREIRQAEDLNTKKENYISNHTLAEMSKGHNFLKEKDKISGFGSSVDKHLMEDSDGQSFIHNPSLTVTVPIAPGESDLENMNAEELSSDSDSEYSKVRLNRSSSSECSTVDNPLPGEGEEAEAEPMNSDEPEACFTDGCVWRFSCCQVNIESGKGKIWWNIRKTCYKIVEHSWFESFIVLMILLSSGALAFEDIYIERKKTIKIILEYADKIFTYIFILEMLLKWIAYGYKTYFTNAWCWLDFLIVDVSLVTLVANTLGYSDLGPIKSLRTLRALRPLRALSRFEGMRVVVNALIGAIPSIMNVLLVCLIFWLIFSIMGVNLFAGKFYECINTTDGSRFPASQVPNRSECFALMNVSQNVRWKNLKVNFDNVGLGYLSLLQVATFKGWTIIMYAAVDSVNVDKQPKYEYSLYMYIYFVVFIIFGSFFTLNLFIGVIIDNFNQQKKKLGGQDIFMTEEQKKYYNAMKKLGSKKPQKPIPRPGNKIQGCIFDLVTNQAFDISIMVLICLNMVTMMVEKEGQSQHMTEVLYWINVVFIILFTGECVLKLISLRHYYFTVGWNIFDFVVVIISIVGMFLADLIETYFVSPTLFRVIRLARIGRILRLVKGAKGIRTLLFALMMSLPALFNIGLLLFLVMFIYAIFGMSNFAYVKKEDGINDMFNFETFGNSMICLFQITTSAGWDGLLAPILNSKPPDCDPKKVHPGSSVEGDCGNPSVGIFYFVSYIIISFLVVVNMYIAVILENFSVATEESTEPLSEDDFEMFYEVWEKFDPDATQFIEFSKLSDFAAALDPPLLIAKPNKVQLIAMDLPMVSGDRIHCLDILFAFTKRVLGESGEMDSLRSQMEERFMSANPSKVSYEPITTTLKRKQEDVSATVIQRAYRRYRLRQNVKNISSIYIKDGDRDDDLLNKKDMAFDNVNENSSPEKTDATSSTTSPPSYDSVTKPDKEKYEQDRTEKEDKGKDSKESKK
T1 sequence (Q07699 19-218 partner): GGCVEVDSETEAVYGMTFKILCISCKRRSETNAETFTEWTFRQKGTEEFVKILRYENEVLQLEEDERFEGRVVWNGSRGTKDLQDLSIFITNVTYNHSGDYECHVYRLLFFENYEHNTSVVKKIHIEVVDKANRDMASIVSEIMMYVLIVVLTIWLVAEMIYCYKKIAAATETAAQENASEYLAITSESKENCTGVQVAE
T1 sequence (O60939 30-215 partner): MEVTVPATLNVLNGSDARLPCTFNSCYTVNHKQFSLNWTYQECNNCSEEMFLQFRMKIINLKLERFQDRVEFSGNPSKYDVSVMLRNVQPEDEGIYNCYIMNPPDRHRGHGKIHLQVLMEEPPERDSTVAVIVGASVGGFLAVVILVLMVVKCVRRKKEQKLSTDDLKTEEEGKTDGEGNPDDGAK

O=C(O)CNC(=O)c1cc(-c2cc(Cl)ccc2Oc2cc(F)c(S(=O)(=O)Nc3ncns3)cc2Cl)ccn1 [Compound 2, 2-(4-(2-(4-(N-(1,2,4-thiadiazol-5-yl)sulfamoyl)-2-chloro-5-fluorophenoxy)-5-chlorophenyl)picolinamido)acetic acid]
reduction in pain (writhing) relative to vehicle control (rats): 48-58%

NC(=O)CNCCCc1cc(Cl)ccc1Oc1cc(F)c(S(=O)(=O)Nc2cscn2)cc1Cl [Compound 49, 2-((3-(5-chloro-2-(2-chloro-5-fluoro-4-(N-(thiazol-4-yl)sulfamoyl)phenoxy)phenyl)propyl)amino)acetamide]
food intake compared to the vehicle control group (diabetic rats; FIG. 1, 60 mg/kg/day for 9 days, reduction continues through week 52): significantly reduced | glucose level compared to the vehicle control group (diabetic rats; FIG. 2, 60 mg/kg/day for 9 days, reduction continues through week 52): significantly reduced | water intake compared to the vehicle control group (diabetic rats; FIG. 3, 60 mg/kg/day for 9 days, reduction continues through week 52): significantly reduced | general appearance and/or health (diabetic rats; after the treatment stopped on day 9): improvements in general appearance and/or health | mechanical pain (paw pressure test) (diabetic rats; [1]): rapid and sustained improvement | tachyphylaxis (diabetic rats; [1]): no tachyphylaxis | thermal pain (plantar test) (diabetic rats; [1]): rapid and sustained improvement | paw pressure test threshold after compound withdrawal (diabetic rats; [2]): returned to the pretreatment baseline | plantar test threshold after compound withdrawal (diabetic rats; [2]): returned to the pretreatment baseline | effect in the tactile allodynia test relative to vehicle control (Sprague-Dawley rats): no significant effect

C#CCN(CCCc1cc(Cl)ccc1Oc1cc(F)c(S(=O)(=O)Nc2nccs2)cc1Cl)CC(=O)O [Compound 54, 2-((3-(5-chloro-2-(2-chloro-5-fluoro-4-(N-(thiazol-2-yl)sulfamoyl)phenoxy)phenyl)propyl)(prop-2-yn-1-yl)amino)acetic acid]
pIC50 (NaV1.7): > 7.00 | effect in the tactile allodynia test relative to vehicle control (Sprague-Dawley rats): no significant effect
